{
  "source": "PubChem BioAssay AID1259353",
  "data": [
    {"tested_on": "Trichuris muris adults ex vivo, motility imaging, 24 h", "assay": "whipworm adult movement reduction ex vivo – whole organism, INVAPP motility imaging, 24 h, dose response (AID 1259353)", "units": {"EC50": "µM"}, "values": [
      {"smiles": "CNc1nc(NCCOc2ccccc2Cl)c2sccc2n1", "EC50": 44},
      {"smiles": "CNc1nc(NCCOc2ccccc2)c2sccc2n1", "EC50": 28},
      {"smiles": "COc1ccccc1CNc1nc(NCCOc2ccccc2Cl)c2sccc2n1", "EC50": 70},
      {"smiles": "COCCNc1nc(NCCOc2ccccc2Cl)c2sccc2n1", "EC50": 26}
    ]}
  ]
}
